Data published in ChEMBL document CHEMBL4715701, “A new chromanone derivative isolated from Hypericum lissophloeus (Hypericaceae) potentiates GABAA receptor currents in a subunit specific fashion” (Bioorg Med Chem, 2016).
Activity calls are given as the source filed them. No cut-off for these calls is given here.

What was measured:
[1] = Ex vivo inhibition of synaptosomal serotonin re-uptake 10 to 100 uM relative to control; type: functional, subcellular; conditions: Synaptosome; dose 10-100 µM
[2] = biological target: T1, GABA-A receptor; alpha-1/beta-2/gamma-2 (Homo sapiens) (UniProt P14867+P47870+P18507); test: Allosteric modulation of GABAA alpha1beta2gamma2 (unknown origin) expressed in Xenopus oocytes assessed as potentiation of GABA-induced current response at 0.1 uM at -80 mV holding potential incubated for 3 mins by two electrode voltage clamp method relative to control; type: cell-based; conditions: Oocyte, filed as positive allosteric modulator
[3] = biological target: T1, GABA-A receptor; alpha-1/beta-2/gamma-2 (Homo sapiens); test: Allosteric modulation of GABAA alpha1beta2gamma2 (unknown origin) expressed in Xenopus oocytes assessed as potentiation of GABA-induced current response at 3 uM at -80 mV holding potential incubated for 3 mins by two electrode voltage clamp method; type: cell-based; conditions: Oocyte, filed as positive allosteric modulator
[4] = biological target: GABA A receptor alpha-1/beta-1/gamma-2 (Homo sapiens) (UniProt P14867+P18507+P18505); test: Allosteric modulation of GABAA alpha1beta1gamma2 (unknown origin) expressed in Xenopus oocytes assessed as potentiation of GABA-induced current response at 3 uM at -80 mV holding potential incubated for 3 mins by two electrode voltage clamp method; type: cell-based; conditions: Oocyte, filed as positive allosteric modulator
[5] = biological target: T1, GABA-A receptor; alpha-1/beta-2/gamma-2 (Homo sapiens); test: Allosteric modulation of GABAA alpha1beta2gamma2 (unknown origin) expressed in Xenopus oocytes assessed as potentiation of GABA-induced current response at -80 mV holding potential incubated for 3 mins by two electrode voltage clamp method relative to control; type: cell-based; conditions: Oocyte, filed as positive allosteric modulator
[6] = test system: Oocyte; test: Allosteric modulation of GABAA alpha2beta2gamma2 (unknown origin) expressed in Xenopus oocytes assessed as potentiation of GABA-induced current response at 3 uM at -80 mV holding potential incubated for 3 mins by two electrode voltage clamp method; type: cell-based; conditions: Homo sapiens, filed as positive allosteric modulator
[7] = biological target: T1, GABA-A receptor; alpha-1/beta-2/gamma-2 (Homo sapiens); test: Allosteric modulation of GABAA alpha1beta2gamma2 (unknown origin) expressed in Xenopus oocytes at 3 uM at -80 mV holding potential incubated for 3 mins by two electrode voltage clamp method relative to control; type: cell-based; conditions: Oocyte
[8] = test system: Oocyte; test: Allosteric modulation of GABAA alpha1beta2N265Igamma2 mutant (unknown origin) expressed in Xenopus oocytes assessed as potentiation of GABA-induced current response at 3 uM at -80 mV holding potential incubated for 3 mins by two electrode voltage clamp method; type: cell-based; conditions: Homo sapiens
[9] = biological target: Gamma-aminobutyric acid receptor subunit alpha-1/beta-2/delta (Homo sapiens) (UniProt P14867+P47870+O14764); test: Allosteric modulation of GABAA alpha1beta2delta (unknown origin) expressed in Xenopus oocytes assessed as potentiation of GABA-induced current response at 3 uM at -80 mV holding potential incubated for 3 mins by two electrode voltage clamp method; type: cell-based; conditions: Oocyte, filed as positive allosteric modulator
[10] = biological target: Gamma-aminobutyric acid receptor subunit alpha-5/beta-2/gamma-2 (Homo sapiens) (UniProt P47870+P18507+P31644); test: Allosteric modulation of GABAA alpha5beta2gamma2 (unknown origin) expressed in Xenopus oocytes assessed as potentiation of GABA-induced current response at 3 uM at -80 mV holding potential incubated for 3 mins by two electrode voltage clamp method; type: cell-based; conditions: Oocyte, filed as positive allosteric modulator
[11] = test system: Oocyte; test: Allosteric modulation of GABAA alpha1S269Ibeta2N265Igamma2S280I mutant (unknown origin) expressed in Xenopus oocytes assessed as potentiation of GABA-induced current response at 3 uM at -80 mV holding potential incubated for 3 mins by two electrode voltage clamp method; type: cell-based; conditions: Homo sapiens
[12] = biological target: T1, GABA-A receptor; alpha-1/beta-2/gamma-2 (Homo sapiens); test: Allosteric modulation of GABAA alpha1beta2gamma2 (unknown origin) expressed in Xenopus oocytes assessed as potentiation of GABA-induced current response at 3 uM at -80 mV holding potential incubated for 3 mins by two electrode voltage clamp method relative to control; type: cell-based; conditions: Oocyte, filed as positive allosteric modulator
[13] = biological target: T1, GABA-A receptor; alpha-1/beta-2/gamma-2 (Homo sapiens); test: Allosteric modulation of GABAA alpha1beta2gamma2 (unknown origin) expressed in Xenopus oocytes assessed as potentiation of GABA-induced current response at 10 uM at -80 mV holding potential incubated for 3 mins by two electrode voltage clamp method; type: cell-based; conditions: Oocyte, filed as positive allosteric modulator
[14] = biological target: GABA-A receptor; alpha-1/beta-3/gamma-2 (Homo sapiens) (UniProt P14867+P18507+P28472); test: Allosteric modulation of GABAA alpha1beta3gamma2 (unknown origin) expressed in Xenopus oocytes assessed as potentiation of GABA-induced current response at 3 uM at -80 mV holding potential incubated for 3 mins by two electrode voltage clamp method; type: cell-based; conditions: Oocyte, filed as positive allosteric modulator
[15] = test system: Oocyte; test: Allosteric modulation of GABAA alpha1S269Ibeta2gamma2 mutant (unknown origin) expressed in Xenopus oocytes assessed as potentiation of GABA-induced current response at 3 uM at -80 mV holding potential incubated for 3 mins by two electrode voltage clamp method; type: cell-based; conditions: Homo sapiens
[16] = Ex vivo inhibition of synaptosomal serotonin re-uptake 100 uM; type: functional, subcellular; conditions: Synaptosome
[17] = biological target: T1, GABA-A receptor; alpha-1/beta-2/gamma-2 (Homo sapiens); test: Allosteric modulation of GABAA alpha1beta2gamma2 (unknown origin) expressed in Xenopus oocytes assessed as potentiation of GABA-induced current response at 30 uM at -80 mV holding potential incubated for 3 mins by two electrode voltage clamp method; type: cell-based; conditions: Oocyte, filed as positive allosteric modulator
[18] = test system: Oocyte; test: Allosteric modulation of GABAA alpha3beta2gamma2 (unknown origin) expressed in Xenopus oocytes assessed as potentiation of GABA-induced current response at 3 uM at -80 mV holding potential incubated for 3 mins by two electrode voltage clamp method; type: cell-based; conditions: Homo sapiens, filed as positive allosteric modulator
[19] = test system: Oocyte; test: Allosteric modulation of GABAA alpha6beta2gamma2 (unknown origin) expressed in Xenopus oocytes assessed as potentiation of GABA-induced current response at 3 uM at -80 mV holding potential incubated for 3 mins by two electrode voltage clamp method; type: cell-based; conditions: Homo sapiens, filed as positive allosteric modulator
[20] = test system: Oocyte; test: Allosteric modulation of GABAA alpha1beta2gamma2S280I mutant (unknown origin) expressed in Xenopus oocytes assessed as potentiation of GABA-induced current response at 3 uM at -80 mV holding potential incubated for 3 mins by two electrode voltage clamp method; type: cell-based; conditions: Homo sapiens
[21] = biological target: T2, GABA-A receptor; alpha-1/beta-2/gamma-2 (Homo sapiens, UniProt P14867+P18507+P47870); test: Allosteric modulation of GABAA alpha1beta2gamma2 (unknown origin) expressed in Xenopus oocytes assessed as potentiation of GABA-induced current response at -80 mV holding potential incubated for 3 mins by two electrode voltage clamp method; type: cell-based, Oocyte
T2 sequence (P14867 whole entry): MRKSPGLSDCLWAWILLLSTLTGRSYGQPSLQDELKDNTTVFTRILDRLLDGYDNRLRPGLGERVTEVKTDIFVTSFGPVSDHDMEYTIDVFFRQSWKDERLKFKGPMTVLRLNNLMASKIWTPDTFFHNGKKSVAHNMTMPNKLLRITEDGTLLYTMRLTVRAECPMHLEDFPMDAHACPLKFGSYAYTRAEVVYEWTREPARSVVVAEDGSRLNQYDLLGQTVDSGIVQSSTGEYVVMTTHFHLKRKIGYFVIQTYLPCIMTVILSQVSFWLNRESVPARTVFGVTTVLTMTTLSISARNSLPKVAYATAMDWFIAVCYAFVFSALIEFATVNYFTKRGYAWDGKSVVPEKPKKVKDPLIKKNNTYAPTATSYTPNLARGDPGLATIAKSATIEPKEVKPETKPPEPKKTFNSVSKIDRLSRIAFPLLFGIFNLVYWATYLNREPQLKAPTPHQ
T2 sequence (P47870 whole entry): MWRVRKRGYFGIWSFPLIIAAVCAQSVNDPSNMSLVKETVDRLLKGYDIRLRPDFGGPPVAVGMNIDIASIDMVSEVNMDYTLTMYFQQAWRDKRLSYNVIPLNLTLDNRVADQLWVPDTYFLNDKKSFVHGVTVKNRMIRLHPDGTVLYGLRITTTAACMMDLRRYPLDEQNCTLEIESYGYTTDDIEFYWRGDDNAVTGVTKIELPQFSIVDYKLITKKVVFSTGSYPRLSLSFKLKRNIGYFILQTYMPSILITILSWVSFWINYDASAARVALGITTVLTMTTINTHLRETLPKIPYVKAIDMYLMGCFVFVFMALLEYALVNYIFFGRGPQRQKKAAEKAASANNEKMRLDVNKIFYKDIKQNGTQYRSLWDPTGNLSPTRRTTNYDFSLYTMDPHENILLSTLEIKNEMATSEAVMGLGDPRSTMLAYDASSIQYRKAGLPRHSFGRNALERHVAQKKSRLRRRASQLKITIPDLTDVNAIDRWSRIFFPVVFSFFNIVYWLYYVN
T2 sequence (P18507 whole entry): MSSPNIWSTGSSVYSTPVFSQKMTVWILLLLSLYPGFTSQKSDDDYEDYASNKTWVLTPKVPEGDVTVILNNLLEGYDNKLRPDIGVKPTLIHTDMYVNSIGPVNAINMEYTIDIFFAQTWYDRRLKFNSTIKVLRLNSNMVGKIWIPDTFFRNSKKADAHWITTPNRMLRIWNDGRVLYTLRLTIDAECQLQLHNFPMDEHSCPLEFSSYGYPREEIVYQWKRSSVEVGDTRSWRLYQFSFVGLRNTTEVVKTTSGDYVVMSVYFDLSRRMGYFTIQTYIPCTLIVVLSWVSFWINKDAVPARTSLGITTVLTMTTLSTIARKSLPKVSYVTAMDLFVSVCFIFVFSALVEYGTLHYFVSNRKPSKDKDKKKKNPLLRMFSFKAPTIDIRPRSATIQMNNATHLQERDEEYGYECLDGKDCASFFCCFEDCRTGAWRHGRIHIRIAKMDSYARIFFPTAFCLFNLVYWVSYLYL

[22] = species on record: Homo sapiens; test: Allosteric modulation of GABA(A)/BzR (unknown origin) assessed as potentiation of GABA-induced current response at 3 uM relative to control; conditions: filed as positive allosteric modulator

CC(C)=CCC[C@]1(C)[C@@H](CC=C(C)C)C[C@]2(CC=C(C)C)C(=O)C(CC=C(C)C)=C(O)[C@@]1(C(=O)C(C)C)C2=O
inhibition [1]: 100%

CN1C(=O)CN=C(c2ccccc2)c2cc(Cl)ccc21
Activity [2]: > 200%

CC(C)=CCc1c(O)cc2c(c1O)C(=O)[C@H](C)[C@@H](C)O2
Activity [3]: Active
Activity [4]: Active
Activity [5]: 4430%
Activity [6]: Active
Activity [7]: 0.71%
Activity [8]: inactive
Activity [9]: Active
Activity [10]: Active
Activity [11]: inactive
Activity [2]: 60%
Activity [12]: 3830%
Activity [13]: Active
Activity [14]: Active
Activity [15]: inactive
inhibition [16]: inactive
Activity [17]: Active
Activity [18]: Active
Activity [19]: Active
Activity [20]: inactive
EC50 [21]: 4.5 µM
Activity [22]: 459%
